Test results: patent publication US20110082130A1 (LIGAND PHARMACEUTICALS, INC., priority 2006, published 2011)
Read-outs that look alike come from different tables or passages of the source.

Target: T1, chimeric human H3 receptor (Homo sapiens, UniProt Q9Y5N1)
T1 construct: made in house; host or cells: Sf9 insect cells (baculovirus); P2 membrane preparation
Assay: Chimeric human H3 receptor screening GTP binding assay (inhibition of histamine-stimulated GTP-gamma35S binding, Example 8)
Format: biochemical
Details: 4 μM of the compound, 1 μM histamine, read-out: percent inhibition of the signal obtained with 1 μM histamine
Outline: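 Sf9 membranes co-expressing chimeric human H3 receptor and heterotrimeric G-protein, 35 μg per reaction, incubated 60 min at room temperature with 4 μM compound, 1 μM histamine, 10 μM GDP and […] GTP-gamma35S at pH 7.4. Filter-bound radioactivity counted. Result expressed as percent inhibition of the histamine signal after subtracting non-specific binding (10 μM GTP-gammaS).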

T1 sequence (Q9Y5N1 with tags, fused parts or gaps): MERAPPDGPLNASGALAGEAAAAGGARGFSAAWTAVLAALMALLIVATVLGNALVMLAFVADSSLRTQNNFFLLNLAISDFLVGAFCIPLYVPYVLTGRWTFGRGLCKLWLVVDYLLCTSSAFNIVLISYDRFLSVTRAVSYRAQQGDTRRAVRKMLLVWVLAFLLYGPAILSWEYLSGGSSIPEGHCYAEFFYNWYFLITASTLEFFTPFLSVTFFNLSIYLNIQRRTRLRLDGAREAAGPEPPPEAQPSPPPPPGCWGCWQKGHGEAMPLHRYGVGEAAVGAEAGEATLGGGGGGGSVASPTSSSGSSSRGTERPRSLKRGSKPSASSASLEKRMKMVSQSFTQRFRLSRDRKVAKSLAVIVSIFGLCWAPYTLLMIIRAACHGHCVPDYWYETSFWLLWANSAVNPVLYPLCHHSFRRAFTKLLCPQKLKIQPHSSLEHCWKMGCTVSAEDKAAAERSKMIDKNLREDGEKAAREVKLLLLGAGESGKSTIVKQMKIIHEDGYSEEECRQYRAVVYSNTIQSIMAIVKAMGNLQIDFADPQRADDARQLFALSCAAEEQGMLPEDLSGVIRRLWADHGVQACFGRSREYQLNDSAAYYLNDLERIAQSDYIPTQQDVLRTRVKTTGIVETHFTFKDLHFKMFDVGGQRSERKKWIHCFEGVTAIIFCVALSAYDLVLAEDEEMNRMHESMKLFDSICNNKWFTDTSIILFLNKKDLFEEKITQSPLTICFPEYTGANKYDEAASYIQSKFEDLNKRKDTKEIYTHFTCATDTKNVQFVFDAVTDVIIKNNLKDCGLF

Structure (SMILES)	inhibition at 4 µM ("†" in Ki of Table II)	inhibition at 4 µM (Table II "Ki", symbol †)
CCc1cccc(-c2ccc3c(c2)CCN(CC(=O)N2CCN(C(C)C)CC2)C3)c1 [Compound 470, 6-(3-ethylphenyl)-2-[2-(4-isopropylpiperazin-1-yl)-2-oxoethyl]-1,2,3,4-tetrahydroisoquinoline]	≥ 90%	–
CC(C)(C)c1ccc(-c2ccc3c(c2)CCN(CC(=O)N2CCN(C4CCC4)CC2)C3)cc1 [Compound 471, 6-(4-tert-butylphenyl)-2-[2-(4-cyclobutylpiperazin-1-yl)-2-oxoethyl]-1,2,3,4-tetrahydroisoquinoline]	≥ 90%	–
CC(C)(C)c1ccc(-c2ccc3c(c2)CCN(CC(=O)N2CCN(C4CCCC4)CC2)C3)cc1 [Compound 472, 6-(4-tert-butylphenyl)-2-[2-(4-cyclopentylpiperazin-1-yl)-2-oxoethyl]-1,2,3,4-tetrahydroisoquinoline]	≥ 90%	–
CC(C)(C)c1ccc(-c2ccc3c(c2)CCN(CC(=O)N2CCN(C4CCCCC4)CC2)C3)cc1 [Compound 473, 6-(4-tert-butylphenyl)-2-[2-(4-cyclohexylpiperazin-1-yl)-2-oxoethyl]-1,2,3,4-tetrahydroisoquinoline]	≥ 90%	–
CC(C)N1CCN(C(=O)CN2CCc3cc(-c4ccc(C(C)(C)C)cc4)ccc3C2)CC1 [Compound 474, 6-(4-tert-butylphenyl)-2-[2-(4-isopropylpiperazin-1-yl)-2-oxoethyl]-1,2,3,4-tetrahydroisoquinoline]	≥ 90%	–
COc1cccc(-c2ccc3c(c2)CCN(CC(=O)N2CCN(C4CCCCC4)CC2)C3)c1 [Compound 477, 2-[2-(4-cyclohexylpiperazin-1-yl)-2-oxoethyl]-6-(3-methoxyphenyl)-1,2,3,4-tetrahydroisoquinoline]	≥ 90%	–
O=C(CN1CCc2cc(-c3ccc(OC(F)(F)F)cc3)ccc2C1)N1CCN(C2CCC2)CC1 [Compound 478, 2-[2-(4-cyclobutylpiperazin-1-yl)-2-oxoethyl]-6-[4-(trifluoromethoxy)phenyl]-1,2,3,4-tetrahydroisoquinoline]	≥ 90%	–
O=C(CN1CCc2cc(-c3ccc(OC(F)(F)F)cc3)ccc2C1)N1CCN(C2CCCC2)CC1 [Compound 479, 2-[2-(4-cyclopentylpiperazin-1-yl)-2-oxoethyl]-6-[4-(trifluoromethoxy)phenyl]-1,2,3,4-tetrahydroisoquinoline]	≥ 90%	–
O=C(CN1CCc2cc(-c3ccc(OC(F)(F)F)cc3)ccc2C1)N1CCN(C2CCCCC2)CC1 [Compound 480, 2-[2-(4-cyclohexylpiperazin-1-yl)-2-oxoethyl]-6-[4-(trifluoromethoxy)phenyl]-1,2,3,4-tetrahydroisoquinoline]	≥ 90%	–
CC(C)N1CCN(C(=O)CN2CCc3cc(-c4ccc(OC(F)(F)F)cc4)ccc3C2)CC1 [Compound 481, 2-[2-(4-isopropylpiperazin-1-yl)-2-oxoethyl]-6-[4-(trifluoromethoxy)phenyl]-1,2,3,4-tetrahydroisoquinoline]	≥ 90%	–
CCOc1cccc(-c2ccc3c(c2)CCN(CC(=O)N2CCN(C4CCCCC4)CC2)C3)c1 [Compound 484, 2-[2-(4-cyclohexylpiperazin-1-yl)-2-oxoethyl]-6-(3-ethoxyphenyl)-1,2,3,4-tetrahydroisoquinoline]	–	≥ 90%
CCOc1cccc(-c2ccc3c(c2)CCN(CC(=O)N2CCN(C(C)C)CC2)C3)c1 [Compound 485, 6-(3-ethoxyphenyl)-2-[2-(4-isopropylpiperazin-1-yl)-2-oxoethyl]-1,2,3,4-tetrahydroisoquinoline]	–	≥ 90%
O=C(CN1CCc2cc(-c3ccc(Oc4ccccc4)cc3)ccc2C1)N1CCN(C2CCC2)CC1 [Compound 486, 2-[2-(4-cyclobutylpiperazin-1-yl)-2-oxoethyl]-6-(4-phenoxyphenyl)-1,2,3,4-tetrahydroisoquinoline]	–	≥ 90%
O=C(CN1CCc2cc(-c3ccc(Oc4ccccc4)cc3)ccc2C1)N1CCN(C2CCCC2)CC1 [Compound 487, 2-[2-(4-cyclopentylpiperazin-1-yl)-2-oxoethyl]-6-(4-phenoxyphenyl)-1,2,3,4-tetrahydroisoquinoline]	–	≥ 90%
O=C(CN1CCc2cc(-c3ccc(Oc4ccccc4)cc3)ccc2C1)N1CCN(C2CCCCC2)CC1 [Compound 488, 2-[2-(4-cyclohexylpiperazin-1-yl)-2-oxoethyl]-6-(4-phenoxyphenyl)-1,2,3,4-tetrahydroisoquinoline]	–	≥ 90%
CC(C)N1CCN(C(=O)CN2CCc3cc(-c4ccc(Oc5ccccc5)cc4)ccc3C2)CC1 [Compound 489, 2-[2-(4-isopropylpiperazin-1-yl)-2-oxoethyl]-6-(4-phenoxyphenyl)-1,2,3,4-tetrahydroisoquinoline]	–	≥ 90%
O=C(CN1CCc2cc(-c3cccc(OC(F)(F)F)c3)ccc2C1)N1CCN(C2CCC2)CC1 [Compound 490, 2-[2-(4-cyclobutylpiperazin-1-yl)-2-oxoethyl]-6-[3-(trifluoromethoxy)phenyl]-1,2,3,4-tetrahydroisoquinoline]	–	≥ 90%
O=C(CN1CCc2cc(-c3cccc(OC(F)(F)F)c3)ccc2C1)N1CCN(C2CCCC2)CC1 [Compound 491, 2-[2-(4-cyclopentylpiperazin-1-yl)-2-oxoethyl]-6-[3-(trifluoromethoxy)phenyl]-1,2,3,4-tetrahydroisoquinoline]	–	≥ 90%
O=C(CN1CCc2cc(-c3cccc(OC(F)(F)F)c3)ccc2C1)N1CCN(C2CCCCC2)CC1 [Compound 492, 2-[2-(4-cyclohexylpiperazin-1-yl)-2-oxoethyl]-6-[3-(trifluoromethoxy)phenyl]-1,2,3,4-tetrahydroisoquinoline]	–	≥ 90%

Other lines, results leading:

inhibition at 4 µM ("†" in Ki of Table II)	inhibition at 4 µM (Table II "Ki", symbol †)	Structure (SMILES)
–	≥ 90%	CC(C)N1CCN(C(=O)CN2CCc3cc(-c4cccc(OC(F)(F)F)c4)ccc3C2)CC1 [Compound 493, 2-[2-(4-isopropylpiperazin-1-yl)-2-oxoethyl]-6-[3-(trifluoromethoxy)phenyl]-1,2,3,4-tetrahydroisoquinoline]
–	≥ 90%	CSc1cccc(-c2ccc3c(c2)CCN(CC(=O)N2CCN(C4CCC4)CC2)C3)c1 [Compound 494, 2-[2-(4-cyclobutylpiperazin-1-yl)-2-oxoethyl]-6-[3-(methylthio)phenyl]-1,2,3,4-tetrahydroisoquinoline]
–	≥ 90%	CSc1cccc(-c2ccc3c(c2)CCN(CC(=O)N2CCN(C4CCCC4)CC2)C3)c1 [Compound 495, 2-[2-(4-cyclopentylpiperazin-1-yl)-2-oxoethyl]-6-[3-(methylthio)phenyl]-1,2,3,4-tetrahydroisoquinoline]
–	≥ 90%	CSc1cccc(-c2ccc3c(c2)CCN(CC(=O)N2CCN(C4CCCCC4)CC2)C3)c1 [Compound 496, 2-[2-(4-cyclohexylpiperazin-1-yl)-2-oxoethyl]-6-[3-(methylthio)phenyl]-1,2,3,4-tetrahydroisoquinoline]
–	≥ 90%	CSc1cccc(-c2ccc3c(c2)CCN(CC(=O)N2CCN(C(C)C)CC2)C3)c1 [Compound 497, 2-[2-(4-isopropylpiperazin-1-yl)-2-oxoethyl]-6-[3-(methylthio)phenyl]-1,2,3,4-tetrahydroisoquinoline]
–	≥ 90%	COc1ccc(-c2ccc(-c3ccc4c(c3)CCN(CC(=O)N3CCN(C5CCC5)CC3)C4)cc2)cc1 [Compound 498, 2-[2-(4-cyclobutylpiperazin-1-yl)-2-oxoethyl]-6-(4′-methoxybiphenyl-4-yl)-1,2,3,4-tetrahydroisoquinoline]
–	≥ 90%	COc1ccc(-c2ccc(-c3ccc4c(c3)CCN(CC(=O)N3CCN(C5CCCC5)CC3)C4)cc2)cc1 [Compound 499, 2-[2-(4-cyclopentylpiperazin-1-yl)-2-oxoethyl]-6-(4′-methoxybiphenyl-4-yl)-1,2,3,4-tetrahydroisoquinoline]
–	≥ 90%	COc1ccc(-c2ccc(-c3ccc4c(c3)CCN(CC(=O)N3CCN(C5CCCCC5)CC3)C4)cc2)cc1 [Compound 500, 2-[2-(4-cyclohexylpiperazin-1-yl)-2-oxoethyl]-6-(4′-methoxybiphenyl-4-yl)-1,2,3,4-tetrahydroisoquinoline]
–	≥ 90%	COc1ccc(-c2ccc(-c3ccc4c(c3)CCN(CC(=O)N3CCN(C(C)C)CC3)C4)cc2)cc1 [Compound 501, 2-[2-(4-isopropylpiperazin-1-yl)-2-oxoethyl]-6-(4′-methoxybiphenyl-4-yl)-1,2,3,4-tetrahydroisoquinoline]
–	≥ 90%	COc1ccc(-c2ccc3c(c2)CCN(CC(=O)N2CCN(C4CCCCC4)CC2)C3)cc1F [Compound 504, 2-[2-(4-cyclohexylpiperazin-1-yl)-2-oxoethyl]-6-(3-fluoro-4-methoxyphenyl)-1,2,3,4-tetrahydroisoquinoline]
–	≥ 90%	COc1ccc(-c2ccc3c(c2)CCN(CC(=O)N2CCN(C(C)C)CC2)C3)cc1F [Compound 505, 6-(3-fluoro-4-methoxyphenyl)-2-[2-(4-isopropylpiperazin-1-yl)-2-oxoethyl]-1,2,3,4-tetrahydroisoquinoline]
–	≥ 90%	COc1cc(F)c(-c2ccc3c(c2)CCN(CC(=O)N2CCN(C(C)C)CC2)C3)cc1F [Compound 508, 6-(2,5-difluoro-4-methoxyphenyl)-2-[2-(4-isopropylpiperazin-1-yl)-2-oxoethyl]-1,2,3,4-tetrahydroisoquinoline]
–	≥ 90%	COc1ccc2cc(-c3ccc4c(c3)CCN(CC(=O)N3CCN(C5CCCC5)CC3)C4)ccc2c1 [Compound 510, 2-[2-(4-cyclopentylpiperazin-1-yl)-2-oxoethyl]-6-(6-methoxy-2-naphthyl)-1,2,3,4-tetrahydroisoquinoline]
–	≥ 90%	COc1ccc2cc(-c3ccc4c(c3)CCN(CC(=O)N3CCN(C5CCCCC5)CC3)C4)ccc2c1 [Compound 511, 2-[2-(4-cyclohexylpiperazin-1-yl)-2-oxoethyl]-6-(6-methoxy-2-naphthyl)-1,2,3,4-tetrahydroisoquinoline]
